# Test results: patent publication US20220324770A1, “NITRIFICATION INHIBITORS” (The University of Melbourne, priority 2019, published 2022)
# Columns and labels:
# Horsham soil = test: Soil microcosm incubation (nitrification of applied ammonium), Horsham soil
# Protocol: (§1) The soil used in this study was collected from four different locations in Victoria, Australia: (i) a wheat cropping soil from Horsham (36° 45′S, 142° 07′ E), (ii) a rotational cropping soil from Dahlen (36° 37′S, 142° 09′ E), (iii) a vegetable growing soil from Clyde (38° 08′S, 145° 20′ E), and (iv) a pasture soil from Terang (38° 15′S, 142° 52′E). In addition, a sugarcane cropping soil from South Johnstone in northern Queensland (17° 34′S, 145° 57′ E) was also studied. The water content of the soil was calculated before commencing each experiment, from samples that were oven-dried to constant weight. The soil's water-filled pore space (WFPS) was in the range 52%-61%, which is within the recommended 50-70% range for microbial activity due to oxygen and nutrient availability (Fichtner, T., et al., Applied Sciences, 2019, 9, 496).
# (§2) Soil microcosm incubations were carried out in 250 ml polypropylene specimen containers (Sarstedt, Germany), containing 18.24 g oven dry-weight equivalent of soil. Microcosms were re-wetted and pre-incubated at the test temperature for seven days to revive soil microbial activity. Following pre-incubation, the remaining volume to reach the desired water-filled pore spaces (WFPS %) was applied as one of the following treatment solutions; (NH4)2SO4(Control), (NH4)2SO4+DMPP, or (NH4)2SO4+one of Compounds 1-23. Each treatment was applied in triplicate per soil type, so that n=3 at each time point.
# (§3) Treatment solutions were prepared such that each microcosm received (NH4)2SO4 at a rate of 100 mg N per kg soil, Compounds 1-23 at 10 mol % of applied N, or DMPP at one of 1.5, 3.6 or 10 mol % of applied N, referred to as L-DMPP, M-DMPP or H-DMPP respectively.
# (§4) The microcosms were incubated for 0, 3, 7, 14, 21 or 28 days, where day 0 samples were extracted following 1-hour incubation post-treatment. Soil microcosms were aerated and moisture levels were replenished based on weight loss every few days throughout the incubation period.
# (§5) At the end of each incubation period, soil microcosms were destructively sampled by treatment with 2M KCl (100 mL). After shaking for 1 hour, soil-KCl solutions were filtered (Whatman 42) before storing the filtrates at −20° C. until the conclusion of the experiment. All KCl extracts were then analysed by Segmented Flow Analysis (San++, Skalar, Breda, The Netherlands) for the concentration of nitrogen from ammonium (NH4^+—N) and nitrogen from NO3 and NO2 (NOx^−—N) after appropriate dilutions. Results are reported as the mean of three replicates, errors reported are standard errors of the mean.
# (§6) Nitrification calculations were performed as previously reported (Aulakh, M., et al., Biology and Fertility of Soils 2001, 33, 258-263; Mahmood, T., et al., Soil Research 2017, 55, 715-722) without correction for the initial baseline concentrations of NH4^+—N or NO3^− N in the untreated soil. For each treatment nitrified NH4^+—N (%) was calculated according to eqn. 1:
# (§7) where [NH4^+—N]0 is the NH4^+—N concentration (in mg N kg^−1 soil) of the soil on day 0 and [NH4^+—N]t is the NH4^+—N concentration (in mg N kg^−1 soil) of the soil at a given time point t.
# (§8) NOx^−—N accumulation rates (mg NOx^−—N/kg soil/day) over the 28-day incubation experiments were calculated for each treatment as in the following (eqn. 2):
# (§9) [NOx^−—N]t=0 and [NOx^−—N]t=28 are the combined concentrations of nitrite (NO2) and nitrate (NO3) in the soil (in mg N kg^−1 soil) on day 0 and day 28, respectively.
# Dahlen soil = test: Soil microcosm incubation (nitrification of applied ammonium), Dahlen soil; settings: for Nitrified NH4+—N (%) Day 3 / Nitrified NH4+—N (%) Day 7 / Nitrified NH4+—N (%) Day 14 / Nitrified NH4+—N (%) Day 21 / Nitrified NH4+—N (%) Day 28: 10 mol %
# Protocol: as §1, §2, §3, §4, §5, §6, §7, §8, §9
# South Johnstone soil = test: Soil microcosm incubation (nitrification of applied ammonium), South Johnstone soil; settings: for Nitrified NH4+—N (%) Day 3 / Nitrified NH4+—N (%) Day 7 / Nitrified NH4+—N (%) Day 14 / Nitrified NH4+—N (%) Day 21 / Nitrified NH4+—N (%) Day 28: 10 mol %
# Protocol: as §1, §2, §3, §4, §5, §6, §7
# [1] = ranging from no effect; cited from earlier work
# [2] = Horsham soil pH 8.8, 25° C., inhibitors 10 mol % of applied N
# [3] = Horsham soil pH 8.8, 25° C., 10 mol %
# [4] = Horsham soil pH 8.8, 35° C., 10 mol %
# [5] = Dahlen soil, 35° C., after 28 days
# [6] = Table 4, Dahlen soil pH 7.3, 25° C.
# [7] = Table 4, Dahlen soil pH 7.3, 35° C.
# [8] = South Johnstone soil pH 5.0, 25° C., negative = NH4+—N higher than day 0 (mineralisation)
# [9] = South Johnstone soil pH 5.0, 25° C.
# [10] = South Johnstone soil pH 5.0, 25° C., day 28
# [11] = South Johnstone soil pH 5.0, 35° C.
# [12] = South Johnstone soil pH 5.0, 35° C., day 28
# [13] = Table 5, Dahlen soil pH 7.3, 25° C.
# [14] = Table 5, Dahlen soil pH 7.3, 35° C.
smiles,measurement,setting,value
"CCCc1cn(CCC)nn1 [Compound 16, 1,4-dipropyl-1H-1,2,3-triazole]",Nitrified NH4+—N (%) Day 3,Horsham soil; [2],8.9 ± 3.4%
same,Nitrified NH4+—N (%) Day 7,Horsham soil; [3],24.9 ± 3.0%
same,Nitrified NH4+—N (%) Day 14,Horsham soil; [3],44.2 ± 3.3%
same,Nitrified NH4+—N (%) Day 21,Horsham soil; [3],57.5 ± 3.4%
same,Nitrified NH4+—N (%) Day 28,Horsham soil; [3],70.9 ± 3.9%
same,Nitrified NH4+—N (%) Day 3,Horsham soil; [4],2.5 ± 4.5%
same,Nitrified NH4+—N (%) Day 7,Horsham soil; [4],22.3 ± 4.3%
same,Nitrified NH4+—N (%) Day 14,Horsham soil; [4],42.3 ± 4.6%
same,Nitrified NH4+—N (%) Day 21,Horsham soil; [4],74.9 ± 6.1%
same,Nitrified NH4+—N (%) Day 28,Horsham soil; [4],83.7 ± 6.1%
same,retaining NH4+ vs uninhibited control treatment,"Horsham soil; Horsham soil, 25° C., after 28 days",performed statistically better
same,nitrification rates vs uninhibited control treatment,"Horsham soil; Horsham soil, 35° C.",lower nitrification rates than the uninhibited control treatment
same,retaining NH4+—N vs uninhibited control treatment and DMPP,"Dahlen soil; Dahlen soil, 25° C., after 28 days",performed statistically better
same,NOx−—N accumulation rate,"Dahlen soil; Dahlen soil, 35° C., 28-day incubation",1.8 mg NOx−—N/kg soil/day
same,ammonia consumption,Dahlen soil; [5],17%
same,retaining NH4+ vs both DMPP treatment and control treatment,Dahlen soil; [5],performed statistically better
same,Nitrified NH4+—N (%) Day 3,Dahlen soil; [6],8.8 ± 3.3%
same,Nitrified NH4+—N (%) Day 7,Dahlen soil; [6],15.6 ± 5.0%
same,Nitrified NH4+—N (%) Day 14,Dahlen soil; [6],16.4 ± 28.7%
same,Nitrified NH4+—N (%) Day 21,Dahlen soil; [6],26.9 ± 4.6%
same,Nitrified NH4+—N (%) Day 28,Dahlen soil; [6],37.3 ± 4.4%
same,Nitrified NH4+—N (%) Day 3,Dahlen soil; [7],1.5 ± 1.4%
same,Nitrified NH4+—N (%) Day 7,Dahlen soil; [7],6.0 ± 1.5%
same,Nitrified NH4+—N (%) Day 14,Dahlen soil; [7],16.1 ± 4.5%
same,Nitrified NH4+—N (%) Day 21,Dahlen soil; [7],29.8 ± 1.2%
same,Nitrified NH4+—N (%) Day 28,Dahlen soil; [7],16.9 ± 2.6%
same,Nitrified NH4+—N (%) Day 3,South Johnstone soil; [8],−6.3 ± 0.8%
same,Nitrified NH4+—N (%) Day 7,South Johnstone soil; [9],−11.5 ± 0.8%
same,Nitrified NH4+—N (%) Day 14,South Johnstone soil; [9],−14.4 ± 0.7%
same,Nitrified NH4+—N (%) Day 21,South Johnstone soil; [9],−16.8 ± 1.2%
same,Nitrified NH4+—N (%) Day 28,South Johnstone soil; [10],−13.2 ± 0.7%
same,Nitrified NH4+—N (%) Day 3,South Johnstone soil; [11],−14.7 ± 1.9%
same,Nitrified NH4+—N (%) Day 7,South Johnstone soil; [11],−26.3 ± 1.7%
same,Nitrified NH4+—N (%) Day 14,South Johnstone soil; [11],−35.7 ± 2.4%
same,Nitrified NH4+—N (%) Day 21,South Johnstone soil; [11],−35.7 ± 0.6%
same,Nitrified NH4+—N (%) Day 28,South Johnstone soil; [12],−18.4 ± 2.3%
same,retaining NH4+—N vs DMPP,"South Johnstone soil; South Johnstone soil, 35° C.",performed statistically better than DMPP
same,retaining NH4+—N and slowing NOx−—N growth vs fertilised control,"South Johnstone soil; South Johnstone soil, 35° C., day 28",performed statistically better than the fertilised control
"Cc1c[nH]nc1C.O=P(O)(O)O [DMPP, 3,4-dimethylpyrazole phosphate, reference compound]",Nitrified NH4+—N (%) Day 3,Horsham soil; [2],−6.9 ± 2.8%
same,Nitrified NH4+—N (%) Day 7,Horsham soil; [3],8.5 ± 2.8%
same,Nitrified NH4+—N (%) Day 14,Horsham soil; [3],37.2 ± 2.3%
same,Nitrified NH4+—N (%) Day 21,Horsham soil; [3],75.7 ± 5.4%
same,Nitrified NH4+—N (%) Day 28,Horsham soil; [3],76.2 ± 2.1%
same,Nitrified NH4+—N (%) Day 3,Horsham soil; [4],7.9 ± 3.0%
same,Nitrified NH4+—N (%) Day 7,Horsham soil; [4],18.9 ± 2.8%
same,Nitrified NH4+—N (%) Day 14,Horsham soil; [4],32.3 ± 4.1%
same,Nitrified NH4+—N (%) Day 21,Horsham soil; [4],46.6 ± 5.9%
same,Nitrified NH4+—N (%) Day 28,Horsham soil; [4],64.5 ± 12.7%
same,NOx−—N accumulation: effect of temperature (25° C. vs 35° C.),"Horsham soil; Horsham soil, 28-day incubation",greatest increase in production rate at the higher test temperature
same,retaining NH4+ and preventing NOx production (statistics vs control),"Horsham soil; Horsham soil, 35° C.",performed statistically better
same,NH4+—N consumption,"Horsham soil; Horsham soil, 35° C., after 28 days",65%
same,performance at higher temperature,"Dahlen soil; Dahlen soil, 35° C. vs 25° C.",performed significantly poorer at the higher temperature
same,retaining NH4+—N vs (NH4)2SO4-treated control by day 28,"Dahlen soil; Dahlen soil, 35° C., Table 5 test",remain highly effective
same,nitrified ammonia,"Dahlen soil; Dahlen soil, 35° C., day 21 (Table 5)",52%
same,Nitrified NH4+—N (%) Day 3,Dahlen soil; [6],2.1 ± 2.8%
same,Nitrified NH4+—N (%) Day 7,Dahlen soil; [6],11.7 ± 6.7%
same,Nitrified NH4+—N (%) Day 14,Dahlen soil; [6],17.3 ± 12.7%
same,Nitrified NH4+—N (%) Day 21,Dahlen soil; [6],18.2 ± 6.6%
same,Nitrified NH4+—N (%) Day 28,Dahlen soil; [6],18.6 ± 4.9%
same,Nitrified NH4+—N (%) Day 3,Dahlen soil; [7],2.4 ± 3.0%
same,Nitrified NH4+—N (%) Day 7,Dahlen soil; [7],24.8 ± 2.7%
same,Nitrified NH4+—N (%) Day 14,Dahlen soil; [7],25.6 ± 3.8%
same,Nitrified NH4+—N (%) Day 21,Dahlen soil; [7],48.3 ± 6.4%
same,Nitrified NH4+—N (%) Day 28,Dahlen soil; [7],60.5 ± 8.4%
same,Nitrified NH4+—N (%) Day 3,"Dahlen soil; Table 5 (further comparative test), Dahlen soil pH 7.3, 25° C.",4.9 ± 3.1%
same,Nitrified NH4+—N (%) Day 7,Dahlen soil; [13],11.0 ± 3.2%
same,Nitrified NH4+—N (%) Day 14,Dahlen soil; [13],17.4 ± 4.2%
same,Nitrified NH4+—N (%) Day 21,Dahlen soil; [13],28.7 ± 5.2%
same,Nitrified NH4+—N (%) Day 28,Dahlen soil; [13],21.8 ± 3.3%
same,Nitrified NH4+—N (%) Day 3,Dahlen soil; [14],15.3 ± 2.9%
same,Nitrified NH4+—N (%) Day 7,Dahlen soil; [14],15.8 ± 2.5%
same,Nitrified NH4+—N (%) Day 14,Dahlen soil; [14],16.0 ± 6.0%
same,Nitrified NH4+—N (%) Day 21,Dahlen soil; [14],51.5 ± 5.4%
same,Nitrified NH4+—N (%) Day 28,Dahlen soil; [14],38.5 ± 2.9%
same,Nitrified NH4+—N (%) Day 3,South Johnstone soil; [8],−12.5 ± 8.8%
same,Nitrified NH4+—N (%) Day 7,South Johnstone soil; [9],−10.3 ± 0.7%
same,Nitrified NH4+—N (%) Day 14,South Johnstone soil; [9],−12.5 ± 0.6%
same,Nitrified NH4+—N (%) Day 21,South Johnstone soil; [9],−12.0 ± 1.6%
same,Nitrified NH4+—N (%) Day 28,South Johnstone soil; [10],−7.5 ± 0.5%
same,Nitrified NH4+—N (%) Day 3,South Johnstone soil; [11],−12.3 ± 1.2%
same,Nitrified NH4+—N (%) Day 7,South Johnstone soil; [11],−25.3 ± 0.9%
same,Nitrified NH4+—N (%) Day 14,South Johnstone soil; [11],−28.1 ± 1.3%
same,Nitrified NH4+—N (%) Day 21,South Johnstone soil; [11],−23.0 ± 2.3%
same,Nitrified NH4+—N (%) Day 28,South Johnstone soil; [12],−0.90 ± 2.3%
same,"effectiveness among the treatments (NH4+—N retention, NOx−—N growth)","South Johnstone soil; South Johnstone soil, 25° C., days 21 and 28",least effective
same,inhibition in field studies for reducing leaching and N2O emissions,[1],≤ 70%
